From patent US20030055065A1, “Tricyclic amide and urea compounds useful for inhibition of G-protein function and for treatment of proliferative diseases” (priority 1993, published 2003)
Where “and” joins values, the source holds several entries; their conditions need not be identical. Equal entries are not always repeated. Where two headings read alike, the source gives them in different places.

Columns and labels:
[1] = tested on: Normal human HEPM fibroblasts; assay: Cell Mat Assay: density of mat cells (mIC50); format: cell-based
Procedure: (§1) Compound-induced colony inhibition was assayed by addition of serial dilutions of compound directly to the growth medium 24 h after tumor cell planting, and incubating cells for an additional 14 d to allow colony formation. Assays were terminated by rinsing monolayers twice with phosphate-buffered saline (PBS), fixing the monolayers with a 1% glutaraldehyde solution in PBS, then visualizing tumor cells by staining with X-Gal (Price, J., et al., Lineage analysis in the vertebrate nervous system by retrovirus-mediated gene transfer, Proc. Natl. Acad. Sci.84, 156-160(1987)). […] Both IC50 values were obtained by determining the density of tumor cells and mat cells by visual inspection and enumeration of cells per colony and the number of colonies under the microscope.

[2] = tested on: Ras-CVLS processing in COS monkey kidney cells; assay: COS cell assay: Ras-CVLS processing (Western blot); format: cell-based; details: COS cells; for IC50: read-out: Inhibition of Ras Processing IC50
Procedure: 2. […] Effect of farnesyl protein transferase inhibitors on Ras processing and on disordered cell growth induced by transforming Ras. COS monkey kidney cells were transfected by electroporation with the plasmid pSV-SPORT (Gibco/BRL) containing a cDNA insert encoding either Ras-CVLS or Ras-CVLL, leading to transient overexpression of a Ras substrate for either farnesyl protein transferase or geranylgeranyl protein transferase I, respectively (see above). […] After 24 hours, media was removed and fresh media containing the appropriate drugs was re-added. 48 hours after electroporation cells were examined under the microscope to monitor disordered cell growth induced by transforming Ras. Cells expressing transforming Ras become more rounded and refractile and overgrow the monolayer, reminiscent of the transformed phenotype. […] Cells were lysed by homogenization and cell debris was removed by centrifugation at 2000×g for 10 min. Cellular protein was precipitated by addition of ice-cold trichloroacetic acid and redissolved in 100 μl of SDS-electrophoresis sample buffer. […] Proteins resolved on the gels were electroblotted onto nitrocellulose membranes for immunodetection. […] E., et al., (1982), Monoclonal antibodies to the p21 products of the transforming gene of Harvey murine sarcome virus and of the cellular ras gene family, J. Virol. 43: 294-304), in PBS containing 1% fetal calf serum for one hour at room temperature. After washing, membranes were incubated for one hour at room temperature with a 1:5000 dilution of secondary antibody, rabbit anti-rat IgG conjugated to horseradish peroxidase, in PBS containing 1% fetal calf serum.

[3] = tested on: T24-BAG4 human bladder carcinoma cells expressing an activated H-ras gene; assay: Cell Mat Assay: tumor cell colony inhibition (tIC50); format: cell-based; details: inhibition of tumor cell growth
Procedure: as §1

[4] = target: T1, farnesyl protein transferase (FPT), partially purified from rat brain (Rattus norvegicus, UniProt Q02293+Q04631); assay: Inhibition of farnesyl protein transferase (transfer of [3H]farnesyl to Ras-CVLS); format: biochemical
T1 construct: were partially purified from rat brain by ammonium sulfate fractionation followed by Q-Sepharose
T1 sequence (Q02293 whole entry, one chain of several): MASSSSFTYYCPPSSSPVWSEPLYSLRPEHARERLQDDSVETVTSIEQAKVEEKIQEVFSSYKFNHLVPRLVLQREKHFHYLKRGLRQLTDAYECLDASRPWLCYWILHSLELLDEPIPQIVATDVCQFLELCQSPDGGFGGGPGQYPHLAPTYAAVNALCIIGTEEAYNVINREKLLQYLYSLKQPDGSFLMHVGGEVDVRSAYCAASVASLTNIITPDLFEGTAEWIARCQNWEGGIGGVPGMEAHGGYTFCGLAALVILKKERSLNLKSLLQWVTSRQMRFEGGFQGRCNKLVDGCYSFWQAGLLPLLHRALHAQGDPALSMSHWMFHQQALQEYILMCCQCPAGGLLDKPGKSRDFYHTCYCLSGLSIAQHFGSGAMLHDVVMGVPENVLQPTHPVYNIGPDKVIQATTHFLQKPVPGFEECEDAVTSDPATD
How it was run: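 Transfer of [3H]farnesyl onto E. coli-expressed, His6-tagged Ras-CVLS was measured after 30 min at room temperature. Radiolabelled Ras was TCA-precipitated on ice and filter-harvested, and inhibition was expressed as percent of DMSO control.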

[5] = Ras-CVLS farnesylation, partially purified rat brain FPT, read-out: FPT IC50
[6] = enzyme inhibition, read-out: FPT IC50

SMILES | IC50 ([1]; Homo sapiens, Fibroblast) [µM] | IC50 ([2]; Primates, COS) [µM] | IC50 ([3]; Homo sapiens) [µM] | IC50 [4, 5] | also measured
O=C(Cc1ccncc1)N1CCC(=C2c3ccc(Br)cc3CCc3cccnc32)CC1 [181 (5.48)] | > 50 | 1.1 | < 3.1 |  | 
O=C(Cc1ccc[n+]([O-])c1)N1CCN(C2c3ccc(Cl)cc3CCc3ccc[n+]([O-])c32)CC1 (stereo not shown) [185 (5.61)] |  | > 20 |  | 3.8 µM | 
O=C(Nc1cccnc1)N1CCN(C2c3ccc(Cl)cc3CCc3cccnc32)CC1 (stereo not shown) [187 (6.7)] | > 50 | 4.8 | 37 | 1.34 µM | IC50 [3]: 25 µM
O=C(Nc1cccnc1)N1CCN([C@H]2c3ccc(Cl)cc3CCc3cccnc32)CC1 [224 (6.11)] | > 50 | 7.3 | 37 | 0.46 µM | 
CC(=O)N1CCC(CC(=O)N2CCN([C@H]3c4ccc(Cl)cc4CCc4cccnc43)CC2)CC1 [225 (5.99)] | > 50 | 6.2 | 12.5 | 1.6 µM | 
CC(=O)N1CCC(C(=O)N2CCN([C@H]3c4ccc(Cl)cc4CCc4cccnc43)CC2)CC1 [226 (5.101)] | > 50 | 6.5 | 12.5 | 1.8 µM | 
O=C(Cc1ccncc1)N1CCC(=C2c3ccc(Cl)cc3CCc3ccc[n+]([O-])c32)CC1 [230 (5.105)] |  |  |  |  | IC50 [1]: > 50 µM; IC50 [2]: > 20 µM; IC50 [3]: 37 µM
O=C(Cc1ccncc1)N1CCC(=C2c3ccc(Cl)cc3CCc3c(Cl)ccnc32)CC1 [248 (5.123)] |  |  |  | 0.19 µM | IC50 [1]: > 50 µM; IC50 [2]: 4.6 µM; IC50 [3]: 18 µM
O=C(Cc1ccncc1)N1CCC(=C2c3ccc(Cl)cc3CCc3ccc(Cl)nc32)CC1 [248 (5.124)] | > 50 | 2.05 | 18 | 1.2 µM | 
O=C(N[C@@H](Cc1ccc(O)cc1)C(=O)N1CCC(=C2c3ccc(Cl)cc3CCc3cccnc32)CC1)OCc1ccccc1 [Example 46] |  |  |  | 1.2 µM | IC50 [1]: > 50 µM; IC50 [2]: > 8 µM
CC(C)(C)C(=O)N1CCC(=C2c3ccc(Cl)cc3CCc3cccnc32)CC1 [Example 53] |  |  |  | 1.5 µM | IC50 [1]: > 50 µM; IC50 [2]: > 13 µM; IC50 [3]: 25 µM
O=C(Cc1cccnc1)N1CCN(C2c3ccc(Cl)cc3CCc3cccnc32)CC1 (stereo not shown) [Example 78] |  | < 4.6 |  |  | IC50 ([4]; FPT IC50, Ras-CVLS farnesylation, partially purified rat brain FPT): 1 µM and 0.42 µM; IC50 ([4]; FPT IC50, enzyme inhibition): 2.19 µM and 0.53 µM and 0.74 µM and 0.76 µM and 0.97 µM
O=C(Cc1ccncc1)N1CCC(C2c3ccc(Cl)cc3CCc3cccnc32)CC1 (stereo not shown) [Example 82, 4-(8-chloro-6,11-dihydro-5H-benzo-[5,6]cyclohepta[1,2-b]pyridin-11-yl)-1-[(4-pyridinyl)acetyl]-piperidine] | 40 | 1.2 | 3.1 | 0.16 µM and 0.36 µM | 
CS(=O)(=O)OCC(C(=O)N1CCC(=C2c3ccc(Cl)cc3CCc3cccnc32)CC1)c1ccccc1 (stereo not shown) [Example 83, 8-chloro-11-[1-(2-methanesulfonyl-oxy-1-phenylethylcarbonyl)-4-piperidylidene]-6,11-dihydro-5H-benzo-[5,6]cyclohepta-[1,2-b]pyridine] |  | 7.4 |  | 0.59 µM | 
CC(=O)SCC(C(=O)N1CCC(=C2c3ccc(Cl)cc3CCc3cccnc32)CC1)c1ccccc1 (stereo not shown) [Example 84] |  | > 9.7 |  | 0.29 µM | 
O=C(CN1C(=O)c2ccccc2S1(=O)=O)N1CCC(=C2c3ccc(Cl)cc3CCc3cccnc32)CC1 [Example 85] |  | > 37.4 |  | 2 µM | 
O=C(Cc1ccncc1)N1CCC(=C2c3ccccc3CCc3ccccc32)CC1 [Example 87] | > 50 | 12.7 | 50 | 1.14 µM | 

SMILES | IC50 ([1]; Homo sapiens, Fibroblast) [µM] | IC50 ([2]; Primates, COS) [µM] | IC50 ([3]; Homo sapiens) [µM] | IC50 [4, 5] | also measured
CC(=O)N1CCC(C(=O)N2CCC(=C3c4ccc(Cl)cc4CCc4cccnc43)CC2)CC1 [Example 89] | > 25 | 6.3 | 6.3 | 1.8 µM | 
O=C(C1CCCC1)N1CCC(=C2c3ccc(Cl)cc3CCc3cccnc32)CC1 [Example 157] |  | 4.5 |  |  | 
CC(C)(C(=O)N1CCN(C2c3ccc(Cl)cc3CCc3cccnc32)CC1)c1cccnc1 (stereo not shown) [Example 198] | > 50 | 6.1 | 12.5 |  | 
CN1CCC(CC(=O)N2CCN(C3c4ccc(Cl)cc4CCc4cccnc43)CC2)CC1 (stereo not shown) [Example 201] | 12.5 | 0.93 | 3.1 | 1.4 µM | 
CN1CCCC(CC(=O)N2CCN(C3c4ccc(Cl)cc4CCc4cccnc43)CC2)C1 (stereo not shown) [Example 206] | 16 | 2.4 | < 3.1 | 1.19 µM | 
O=C(Cc1ccc[n+]([O-])c1)N1CCC(C2c3ccc(Cl)cc3CCc3cccnc32)CC1 (stereo not shown) [Example 233] | > 50 | 10 | 18 | 0.67 µM | 
O=C(Nc1cccnc1)N1CCC(=C2c3ccc(Cl)cc3CCc3c(Cl)ccnc32)CC1 [Example 261] |  | 9.1 |  | 1.3 µM | 
O=C(Nc1cccnc1)N1CCC(C2c3ccc(Cl)cc3C=Cc3cccnc32)CC1 (stereo not shown) [Example 267] |  | 12.5 |  | 1.33 µM | 
O=C(Cc1ccncc1)N1CCC(C2c3ccc(Cl)cc3C=Cc3cccnc32)CC1 (stereo not shown) [Example 269] | 12.5 | 0.69 | 6.25 |  | 
O=C(Nc1cccnc1)N1CCC(C2c3ccc(Cl)cc3C=Cc3c(Cl)ccnc32)CC1 (stereo not shown) [Example 274] |  | 8 |  | 0.91 µM and 1.38 µM | 
CC(C)(C(=O)N1CCC(=C2c3ccc(Cl)cc3C=Cc3cccnc32)CC1)c1cccnc1 [Example 278] |  | 2.6 |  | 0.88 µM | 
O=C(C(=O)N1CCC(=C2c3ccc(Cl)cc3CCc3cccnc32)CC1)c1ccc([N+](=O)[O-])cc1 [Example 295] |  | 20.8 |  | 2.4 µM | 
O=C(Cc1cccnc1)N1CC=C(C2c3ccc(Cl)cc3CCc3cccnc32)CC1 (stereo not shown) [Example 410-D] | > 50 | 18.5 | 10 |  | 
CN1CCC(CC(=O)N2CCN(C3c4ccc(Cl)cc4CCc4cc(Br)cnc43)CC2)CC1 (stereo not shown) [Example 425-O] | 6.25 |  |  |  | IC50 [4, 6]: 0.17 µM and 0.14 µM and 0.122 µM and 0.118 µM and 0.178 µM; Toxicity in COS cells at the concentration in parentheses ([2]; (10) μM): tox (10)
O=C(Cc1ccncc1)N1CCN(C2c3ccc(Cl)cc3CCc3cc(Br)cnc32)CC1 (stereo not shown) [Example 426] | 25 | 0.38 |  |  | IC50 [1]: > 12.5 µM; IC50 [4, 6]: 0.012 µM
Cc1ccc2c(c1)CCc1cccnc1C2=C1CCN(C(=O)Cc2ccncc2)CC1 [Example 434] |  | < 5 |  |  | FPT inhibition at the concentration in parentheses ([4]; (0.48) μM): 70 (0.48); IC50 [4, 6]: 0.26 µM
